In ChEMBL document CHEMBL1201862, “PubChem BioAssay data set” (2004):
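96-well plates; 48 h exposure; 5 concentrations. Endpoints by linear interpolation between flanking doses. Not reached: highest tested concentration assigned. Here, GI50 denotes the concentration required for 50% inhibition of growth.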 The source made the active and inactive calls. Cut-off read from the data, not from the text of the source: active = GI50 up to about 1.1 µM and inactive = higher.

Assays:
Experiment in all cases: NCI-60 cell line screen, 48 h
BT-549 = test system: BT-549
Malme-3M = test system: Malme-3M
UO-31 = test system: UO-31
LOX IMVI = test system: LOX IMVI
SK-MEL-5 = test system: SK-MEL-5
OVCAR-3 = test system: OVCAR-3
ACHN = test system: ACHN
HOP-62 = test system: HOP-62
HCC 2998 = test system: HCC 2998
OVCAR-8 = test system: OVCAR-8
K562 = test system: K562
UACC-62 = test system: UACC-62
UACC-257 = test system: UACC-257
CAKI-1 = test system: CAKI-1
DU-145 = test system: DU-145
NCI-H226 = test system: NCI-H226
A549 = test system: A549
NCI/ADR-RES = test system: NCI/ADR-RES
TK-10 = test system: TK-10
SF-539 = test system: SF-539
PC-3 = test system: PC-3
SK-MEL-2 = test system: SK-MEL-2
786-0 = test system: 786-0
T47D = test system: T47D
MCF7 = test system: MCF7
RPMI-8226 = test system: RPMI-8226
NCI-H460 = test system: NCI-H460
OVCAR-5 = test system: OVCAR-5
A498 = test system: A498
SNB-19 = test system: SNB-19
EKVX = test system: EKVX
MDA-MB-435 = test system: MDA-MB-435
U-251 = test system: U-251
Hs-578T = test system: Hs-578T
SK-MEL-28 = test system: SK-MEL-28
SF-268 = test system: SF-268
CCRF-CEM = test system: CCRF-CEM
SK-OV-3 = test system: SK-OV-3
COLO 205 = test system: COLO 205
SF-295 = test system: SF-295
IGROV-1 = test system: IGROV-1
KM12 = test system: KM12
RXF 393 = test system: RXF 393
M14 = test system: M14
HCT-15 = test system: HCT-15
HT-29 = test system: HT-29
HOP-92 = test system: HOP-92
SNB-75 = test system: SNB-75
MDA-N = test system: MDA-N
NCI-H23 = test system: NCI-H23
MOLT-4 = test system: MOLT-4
SN12C = test system: SN12C
SW-620 = test system: SW-620
SR = test system: SR
MDA-MB-231 = test system: MDA-MB-231
NCI-H522 = test system: NCI-H522
HL-60 = test system: HL-60
OVCAR-4 = test system: OVCAR-4
HCT-116 = test system: HCT-116

In the case of `CC1(C)[C@@H]2C[C@H]1c1cnc(-c3ccccn3)cc1[C@H]2C(O)[C@@H]1c2cc(-c3ccccn3)ncc2[C@H]2C[C@@H]1C2(C)C` (stereo partly specified), the GI50 (BT-549) is reported as 184 nM (active), the GI50 (Malme-3M) is reported as 218 nM (active) and the GI50 (UO-31) is reported as 78.5 nM (active). For the same compound, the GI50 (LOX IMVI) was 27.2 nM (active), the GI50 (SK-MEL-5) was 46.1 nM (active) and the GI50 (OVCAR-3) was 28.1 nM (active). The GI50 (ACHN) was 113 nM (active), the GI50 (HOP-62) was 73 nM (active) and the GI50 (HCC 2998) was 993 nM (active). The GI50 (OVCAR-8) was 124 nM (active), the GI50 (K562) was 124 nM (active) and the GI50 (UACC-62) was 247 nM (active). The GI50 (UACC-257) was 396 nM (active), the GI50 (CAKI-1) was 106 nM (active) and the GI50 (DU-145) was 125 nM (active). The GI50 (NCI-H226) was < 50.4 nM (active), the GI50 (A549) was 154 nM (active) and the GI50 (NCI/ADR-RES) was 101 nM (active). The GI50 (TK-10) was 2140 nM (inactive), the GI50 (SF-539) was 214 nM (active) and the GI50 (PC-3) was 332 nM (active). For the same compound, the GI50 (SK-MEL-2) was 428 nM (active), the GI50 (786-0) was 45.1 nM (active) and the GI50 (T47D) was 505 nM (active). The GI50 (MCF7) was 79.6 nM (active), the GI50 (RPMI-8226) was 89.3 nM (active) and the GI50 (NCI-H460) was 47.2 nM (active). For the same compound, the GI50 (OVCAR-5) was 1110 nM (active), the GI50 (A498) was 491 nM (active) and the GI50 (SNB-19) was 301 nM (active). The GI50 (EKVX) was 165 nM (active), the GI50 (MDA-MB-435) was 1000 nM (active) and the GI50 (U-251) was 74.1 nM (active). The GI50 (Hs-578T) was 6930 nM (inactive), the GI50 (SK-MEL-28) was 470 nM (active) and the GI50 (SF-268) was 126 nM (active). For the same compound, the GI50 (CCRF-CEM) was < 22.2 nM (active), the GI50 (SK-OV-3) was 86.7 nM (active) and the GI50 (COLO 205) was 161 nM (active). The GI50 (SF-295) was 72.1 nM (active), the GI50 (IGROV-1) was 43 nM (active) and the GI50 (KM12) was 769 nM (active). For the same compound, the GI50 (RXF 393) was 198 nM (active), the GI50 (M14) was 82 nM (active) and the GI50 (HCT-15) was 71.8 nM. For the same compound, the GI50 (HT-29) was 112 nM (active), the GI50 (HOP-92) was 322 nM (active) and the GI50 (SNB-75) was 773 nM (active). For the same compound, the GI50 (MDA-N) was 627 nM (active), the GI50 (NCI-H23) was 189 nM (active) and the GI50 (MOLT-4) was 28.5 nM (active). The GI50 (SN12C) was 54.7 nM (active), the GI50 (SW-620) was 170 nM (active) and the GI50 (SR) was 30.9 nM (active). For the same compound, the GI50 (MDA-MB-231) was 338 nM (active), the GI50 (NCI-H522) was 142 nM (active) and the GI50 (HL-60) was 21.2 nM (active). For the same compound, the GI50 (OVCAR-4) was 61.8 nM (active) and the GI50 (HCT-116) was 37.4 nM (active).
`CC(=O)O[C@H]1C(=O)[C@@]2(C)[C@H]([C@H](OC(=O)c3ccccc3)[C@]3(O)C[C@H](OC(=O)[C@H](O)[C@@H](NC(=O)C(C)(O)C(C)O)c4ccccc4)C(C)=C1C3(C)C)[C@]1(OC(C)=O)CO[C@@H]1C[C@@H]2O` (stereo partly specified) was tested, and the GI50 (BT-549) was 142 nM (active), the GI50 (Malme-3M) was 226 nM (active) and the GI50 (UO-31) was 27600 nM (inactive). The GI50 (LOX IMVI) was 607 nM (active), the GI50 (SK-MEL-5) was 207 nM (active) and the GI50 (OVCAR-3) was 172 nM (active). The GI50 (ACHN) was 14400 nM (inactive), the GI50 (HOP-62) was 282 nM (active) and the GI50 (HCC 2998) was 141 nM (active). For the same compound, the GI50 (OVCAR-8) was 1420 nM (inactive), the GI50 (K562) was 172 nM (active) and the GI50 (UACC-62) was 242 nM (active). The GI50 (UACC-257) was 381 nM (active), the GI50 (CAKI-1) was 15500 nM (inactive) and the GI50 (DU-145) was 927 nM (active). For the same compound, the GI50 (A549) was 573 nM (active), the GI50 (NCI/ADR-RES) was > 50000 nM (inactive) and the GI50 (TK-10) was 5690 nM (inactive). The GI50 (SF-539) was 112 nM (active), the GI50 (PC-3) was 226 nM (active) and the GI50 (SK-MEL-2) was 124 nM (active). For the same compound, the GI50 (786-0) was 1330 nM (inactive), the GI50 (T47D) was 929 nM (active) and the GI50 (MCF7) was 76 nM (active). For the same compound, the GI50 (RPMI-8226) was 86.5 nM (active), the GI50 (NCI-H460) was 282 nM (active) and the GI50 (OVCAR-5) was 687 nM (active). For the same compound, the GI50 (A498) was 9440 nM (inactive), the GI50 (SNB-19) was 796 nM (active) and the GI50 (EKVX) was > 50000 nM (inactive). For the same compound, the GI50 (MDA-MB-435) was 35.2 nM (active), the GI50 (U-251) was 239 nM (active) and the GI50 (Hs-578T) was 96.4 nM (active). For the same compound, the GI50 (SF-268) was 310 nM (active), the GI50 (CCRF-CEM) was 183 nM (active) and the GI50 (SK-OV-3) was 231 nM (active). For the same compound, the GI50 (COLO 205) was 93.3 nM (active), the GI50 (SF-295) was 3720 nM (inactive) and the GI50 (IGROV-1) was 205 nM (active). The GI50 (KM12) was 167 nM (active), the GI50 (RXF 393) was 316 nM (active) and the GI50 (M14) was 337 nM (active). For the same compound, the GI50 (HCT-15) was 17000 nM, the GI50 (HT-29) was 128 nM (active) and the GI50 (HOP-92) was 440 nM (active). The GI50 (SNB-75) was 51.4 nM (active), the GI50 (MDA-N) was 30.8 nM (active) and the GI50 (NCI-H23) was 282 nM (active). For the same compound, the GI50 (MOLT-4) was 282 nM (active), the GI50 (SN12C) was 485 nM (active) and the GI50 (SW-620) was 195 nM (active). For the same compound, the GI50 (SR) was 133 nM (active), the GI50 (MDA-MB-231) was 359 nM (active) and the GI50 (NCI-H522) was 107 nM (active). For the same compound, the GI50 (HL-60) was 85.9 nM (active), the GI50 (OVCAR-4) was 13200 nM (inactive) and the GI50 (HCT-116) was 140 nM (active).
